Consider 2 compounds from ChEMBL document CHEMBL1126797 (J Med Chem, 1993).

In general, IC50 refers to the concentration needed to halve the response being measured. A high value points to weaker potency in that assay.

For assay [1], the system named is HT-29. As to the kind of experiment: Tumor volume in HT-29 cells after subcutaneous administration on days 16,20,23,27,30,34,37,41,44,48 at dose of 3.5 mg/kg. The format is functional, Homo sapiens.
The nature of assay [2]: Number of metastases in K1735-M2 murine melanoma cells after subcutaneous administration on days1,4,6,8 at dose of 3.5 mg/kg. It counts as functional, Mus musculus.
In the next assay the target is T1, DNA topoisomerase 1 (Homo sapiens, UniProt P11387).
T1 sequence (P11387 whole entry): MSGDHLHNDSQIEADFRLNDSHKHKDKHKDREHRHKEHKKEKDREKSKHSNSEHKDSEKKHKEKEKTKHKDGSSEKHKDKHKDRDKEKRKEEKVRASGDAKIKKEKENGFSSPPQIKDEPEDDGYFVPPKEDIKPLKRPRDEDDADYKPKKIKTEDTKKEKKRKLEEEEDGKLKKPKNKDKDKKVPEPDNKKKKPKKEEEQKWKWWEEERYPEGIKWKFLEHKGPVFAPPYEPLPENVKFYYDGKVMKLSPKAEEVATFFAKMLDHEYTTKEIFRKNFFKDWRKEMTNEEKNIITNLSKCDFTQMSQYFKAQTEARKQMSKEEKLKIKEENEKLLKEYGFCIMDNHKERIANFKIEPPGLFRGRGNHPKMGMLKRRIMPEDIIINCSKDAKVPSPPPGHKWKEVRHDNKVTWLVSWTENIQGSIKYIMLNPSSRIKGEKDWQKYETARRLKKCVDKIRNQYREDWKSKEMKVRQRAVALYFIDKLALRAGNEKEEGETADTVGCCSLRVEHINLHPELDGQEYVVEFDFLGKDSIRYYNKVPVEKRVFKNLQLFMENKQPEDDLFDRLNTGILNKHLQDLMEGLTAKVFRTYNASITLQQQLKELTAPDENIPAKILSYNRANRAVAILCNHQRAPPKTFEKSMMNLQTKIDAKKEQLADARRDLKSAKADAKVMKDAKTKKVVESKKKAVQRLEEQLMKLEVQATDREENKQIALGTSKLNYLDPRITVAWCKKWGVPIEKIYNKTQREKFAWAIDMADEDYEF
As to the kind of experiment: Inhibition of Topoisomerase I by cleavage complex formation in human HL-60 cells. It counts as cell-based.

Assay [3] concerns Mus musculus. As to the kind of experiment: Relative survival in L1210 lymphoid leukemic mice after subcutaneous administration on days 1,4,6,8 at dose of 3.5 mg/kg. It counts as functional.
Assay [4] has as its system Mus musculus. Put plainly: Relative survival in RAW117-H10 cells implanted mice in comparison to control at dose of 3.5 mg/kg. It counts as functional.
The species named for assay [5] is Mus musculus. Put plainly: Number of L1210 lymphoid leukemic mice cured out of […]. It counts as functional.
Assay [6] is filed under the species Mus musculus. Put plainly: Percent median survival time of treated leukemic mice compared to control. It counts as functional.
Assay [7] relates to Mus musculus. As to the kind of experiment: Relative survival in RAW117-H10 cells implanted mice in comparison to control at dose of 1.5 mg/kg. The format is functional.
The test system of assay [8] is Mus musculus. As to the kind of experiment: Relative survival in L1210 lymphoid leukemic mice after subcutaneous administration on days1,4,6,8 at dose of 1.5 mg/kg. It counts as functional.
In assay [9] the test system is HT-29. As to the kind of experiment: Tumor volume in HT-29 cells after subcutaneous administration on days 16,20,23,27,30,34,37,41,44,48 at dose of 1.5 mg/kg. It counts as functional, Homo sapiens.
A further assay relates to L1210. As to the kind of experiment: Log of initial tumor cell population minus log of tumor cell population at end of treatment in L1210 lymphoid leukemic mice. The format is functional, Mus musculus.
The nature of assay [10]: Number of metastases in K1735-M2 murine melanoma cells after subcutaneous administration on days1,4,6,8 at dose of 1.5 mg/kg. The format is functional, Mus musculus.
Assay [11] relates to Mus musculus. Put plainly: Highest active dose in L1210 lymphoid leukemic mice at dose range of 0.3-1.5 mg/kg. The format is functional.

As for `CC[C@@](O)(C(=O)[O-])c1cc2n(c(=O)c1CO)Cc1cc3c(N)c4c(cc3nc1-2)OCO4.[Na+]`, the results for the Control (in the assay on HT-29 [1]; in [2]) were 38% and 51%, respectively. The compound also returned an IC50 against DNA topoisomerase 1 of 4300 nM. Also, the results for the T/C with Mus musculus [3] and in the assay on Mus musculus [4] were 2.56 and 1.75, respectively.
For the compound `CC[C@@]1(O)C(=O)OCc2c1cc1n(c2=O)Cc2cc3c(N)c4c(cc3nc2-1)OCO4`, in the assay listed under Mus musculus [5], the Cures was found to be 4. It took 48 nM to reach half-maximal inhibition against DNA topoisomerase 1 (IC50). Moreover, the T/C is 336% in the assay filed under Mus musculus [6], 1.25 in the assay on Mus musculus [7] and 1.98 in the assay with Mus musculus [8]. In addition, the Control (with HT-29 [9]; in [10]) was 17% each time. For the same compound, the KE with L1210 is 5.8. In addition, the Highest active dose with Mus musculus [11] came to 1.5 mg/kg.
